What was measured:
MCF10A [1] = test: Uptake of AS1411 by macropinocytosis (MP); assay type: cell-based, human; conditions: Non-cancer, breast epithelial
Text: (§1) It has recently been discovered that AS1411 can stimulate macropinocytosis (MP) in cancer cells and this finding was verified by several different methods and in multiple cancer cell lines (Table 1).

Hs27 = test: Stimulation of macropinocytosis (dextran uptake); assay type: cell-based, human; conditions: Hs27; Non-cancer, skin fibroblasts
Method: (Panel A) DU145 cells were treated with 10 μM tAS1411 or 10 μM tCRO or no oligonucleotide in complete DMEM medium at 37° C. for the time indicated. After treatment, cell medium was changed for fresh complete medium containing 0.2 mg/ml dextran-10K labeled with Alexa Fluor 488, and cells were incubated for 30 min at 37° C. After incubation, cells were harvested and analyzed by flow cytometry to determine dextran uptake. (Panel B) The same experiment was performed using Hs27 cells. (Panel C) DU145 cells were treated with 10 μM tAS1411 or 10 μM tCRO or no oligonucleotide in complete DMEM medium at 37° C. for 48 h. […]
(§2) AS1411 causes a change in cancer cell morphology that is characterized by vacuolization, irregular nuclei, and swollen cells (Xu et al., 2001, J. Biol. Chem., 276:43221-30). […] To test this idea, DU145 cells were pre-treated for 24 h with tAS1411, then added FL-AS1411 and evaluated uptake after an additional 2 h using flow cytometry. […] This idea is not necessarily inconsistent with the time course data shown in FIG. 1A because the fluorescence signal may decrease over time for a number of reasons, including exocytosis of the ligand and fluorescence quenching due to protein binding or environmental factors (the fluorophore used for flow cytometry is particularly sensitive to acidic environments). […]

MCF10A [2] = test: Stimulation of macropinocytosis (dextran uptake); assay type: cell-based, human; conditions: MCF10A; Non-cancer, breast epithelial
Method: FIG. 10 are graphs showing the stimulation of macropinocytosis by GROs. Breast carcinoma cells (MDA-MB-231, MCF-7) or non-malignant breast epithelial cells (MCF10A) cells were plated 18 hr before treatment with 10 μM tAS1411 or 10 μM tCRO or water in complete DMEM medium at 37° C. for 48 hr or 72 hr. After treatment, cell medium was changed for fresh complete medium containing 0.2 mg/ml dextran-10K labeled with Alexa Fluor 488 and cells were incubated for 30 min at 37° C. Cells were then incubated on ice with 1 mg/ml PI in PBS, harvested, and analyzed by flow cytometry. Uptake was normalized to no pre-treatment controls and bars show the mean and SE of three independent experiments. […]
as §2

MCF7 [3] = test: Stimulation of macropinocytosis (dextran uptake); assay type: cell-based; conditions: MCF7; Cancer, breast
Method: (§3) FIG. 10 are graphs showing the stimulation of macropinocytosis by GROs. Breast carcinoma cells (MDA-MB-231, MCF-7) or non-malignant breast epithelial cells (MCF10A) cells were plated 18 hr before treatment with 10 μM tAS1411 or 10 μM tCRO or water in complete DMEM medium at 37° C. for 48 hr or 72 hr. After treatment, cell medium was changed for fresh complete medium containing 0.2 mg/ml dextran-10K labeled with Alexa Fluor 488 and cells were incubated for 30 min at 37° C. Cells were then incubated on ice with 1 mg/ml PI in PBS, harvested, and analyzed by flow cytometry. Uptake was normalized to no pre-treatment controls and bars show the mean and SE of three independent experiments.
(§4) To analyze uptake of the oligodeoxynucleotides or dextran-10K (macropinocytic marker) by flow cytometry, 2×10^5 cells in fresh supplemented culture medium (2.5 ml) were plated into 6-well plates for 18 h. After complete adhesion, the cells were incubated with 5′-FAM tagged oligodeoxynucleotides or Alexa Fluor 488 tagged dextran-10K and incubated as indicated in the Description of the Drawings. Cells were washed once with ice-cold PBS, incubated with 1 μg/ml 7-amino-actinomycin D (7-AAD) for 5 min on ice or 1 μg/ml propidium iodide (PI), and washed twice with ice-cold PBS. Cells were then treated with 0.01% trypsin/0.5 mM EDTA (300 μl) for 3 min prior addition 3 ml supplemented culture medium. The cells were then centrifuged and resuspended in 0.5 ml of 1% paraformaldehyde for analysis by flow cytometry using a FACScalibur cytometer (BD Biosciences, Mountain View, Calif.).
(§5) AS1411 causes a change in cancer cell morphology that is characterized by vacuolization, irregular nuclei, and swollen cells (Xu et al., 2001, J. Biol. Chem., 276:43221-30). Therefore, the effect of AS1411 on macropinocytosis in DU145 cells and non-malignant Hs27 cells was investigated. […] As in all of the flow cytometry experiments, cells were gated to exclude permeable cells, discounting the possibility that this increase was due to cell death. […] One implication of the finding that AS1411 causes hyperstimulation of macropinocytosis is that treatment of AS1411 might actually promote its own internalization by cancer cells. To test this idea, DU145 cells were pre-treated for 24 h with tAS1411, then added FL-AS1411 and evaluated uptake after an additional 2 h using flow cytometry. […] This idea is not necessarily inconsistent with the time course data shown in FIG. 1A because the fluorescence signal may decrease over time for a number of reasons, including exocytosis of the ligand and fluorescence quenching due to protein binding or environmental factors (the fluorophore used for flow cytometry is particularly sensitive to acidic environments). […]

MDA-MB-231 [4] = test: Stimulation of macropinocytosis (dextran uptake); assay type: cell-based; conditions: MDA-MB-231; Cancer, breast
Method: as §3, §4, §5

A549 = test: Cell response to AS1411; assay type: cell-based; conditions: Cancer, non-small cell lung
Text: as §1

BEAS2B = test: Cell response to AS1411; assay type: cell-based; conditions: Non-cancer, lung epithelial
Text: as §1

CHO = test: Cell response to AS1411; assay type: cell-based; conditions: Non-cancer, hamster ovary
Text: as §1

DU145 = test: Cell response to AS1411; assay type: cell-based
Text: as §1

MCF7 [5] = test: Cell response to AS1411; assay type: cell-based; conditions: Cancer, breast
Text: as §1

MDA-MB-231 [6] = test: Cell response to AS1411; assay type: cell-based; conditions: Cancer, breast
Text: as §1

RCC4 = test: Cell response to AS1411; assay type: cell-based; conditions: Cancer, renal cell
Text: as §1

RWPE1 = test: Cell response to AS1411; assay type: cell-based; conditions: Non-cancer, prostate epithelial
Text: as §1

SK-N-DZ = test: Cell response to AS1411; assay type: cell-based; conditions: Cancer, neuroblastoma
Text: as §1

cancer cells = test: Stimulation of macropinocytosis / induced uptake; assay type: cell-based
Text: A number of additional G-rich oligonucleotides were obtained and used to evaluate whether or not macropinocytosis was increased in cancer cells using the methodology described herein. For example, the following sequences were used:
In addition, the G-rich oligonucleotides disclosed in Dapic et al. (2003, Nuc. Acids Res.,31:2097 -107; KS-A though KS-I) and the G-rich oligonucleotides (e.g., telomere homologs, GT oligonucleotides, Stat3 binders, Dz13, and triplex oligonucleotides with aptameric effects) disclosed in Bates et al. (2009, Exp. Mol. Path., 86:151-64) and references therein are shown to stimulate macropinocytosis in cancer cells.
Furthermore, due to the unique properties of MPsomes, delivery by MP leads to increased functional activity. Thus, treatment with AS1411, followed by administration of an anticancer siRNA, for example, leads to a synergistic increase in anticancer effects without harming normal cells. Another strategy to potentiate the effects of AS1411 is to combine it with agents that promote MP and activation of Rac. This leads to increased macropinocytic uptake of AS1411 and/or enhanced methuosis.

5′-d(GGTGGTGGTGGTTGTGGTGGTGGTGG) [AS1411]
Update by MP? (MCF10A [1]): Low | Stimulate MP? (Hs27): No | Stimulate MP? (MCF10A [2]): No | Stimulate MP? (MCF7 [3]): Yes | Stimulate MP? (MDA-MB-231 [4]): Yes | Cells respond? (A549): Yes | Cells respond? (BEAS2B): No | Cells respond? (CHO): No | sensitivity of cells to AS1411 (DU145): sensitive | Cells respond? (DU145; DU145, Cancer, prostate): Yes | Cells respond? (MCF7 [5]): Yes | Cells respond? (MDA-MB-231 [6]): Yes | Cells respond? (RCC4): Yes | Cells respond? (RWPE1): No | Cells respond? (SK-N-DZ): Yes | induced uptake from the culture medium after pre-treatment (cancer cells): induced uptake of dextran, AS1411, or transferrin (by MP)

— patent US20130065227A1, “METHODS OF INCREASING MACROPINOCYTOSIS IN CANCER CELLS” (priority 2010, published 2013)
